Measurements: ChEMBL document CHEMBL1201861, “Genomics of Drug Sensitity in Cancer screening data, Wellcome Trust Sanger Institute”

Experiments:
Assay in all cases: cells
CP50-MEL-B = assay type: functional, cell-based, Homo sapiens; conditions: Homo sapiens, CP50-MEL-B
Description: SANGER: Inhibition of human CP50-MEL-B cell growth in a cell viability assay.

D-502MG = assay type: functional, cell-based, Homo sapiens; conditions: Homo sapiens, D-502MG
Description: SANGER: Inhibition of human D-502MG cell growth in a cell viability assay.

DJM-1 = assay type: functional, cell-based, Homo sapiens; conditions: Homo sapiens, DJM-1
Description: SANGER: Inhibition of human DJM-1 cell growth in a cell viability assay.

DSH1 = assay type: functional, cell-based, Homo sapiens; conditions: Homo sapiens, DSH1
Description: SANGER: Inhibition of human DSH1 cell growth in a cell viability assay.

EM-2 = assay type: functional, cell-based; conditions: Homo sapiens
Description: SANGER: Inhibition of human EM-2 cell growth in a cell viability assay.

GAMG = assay type: functional, cell-based, Homo sapiens; conditions: Homo sapiens, GAMG
Description: SANGER: Inhibition of human GAMG cell growth in a cell viability assay.

HCC1395 = assay type: functional, cell-based, Homo sapiens; conditions: Homo sapiens, HCC1395
Description: SANGER: Inhibition of human HCC1395 cell growth in a cell viability assay.

HEC-1 = assay type: functional, cell-based, Homo sapiens; conditions: Homo sapiens, HEC-1
Description: SANGER: Inhibition of human HEC-1 cell growth in a cell viability assay.

HO-1-N-1 = assay type: functional, cell-based, Homo sapiens; conditions: Homo sapiens, HO-1-N-1
Description: SANGER: Inhibition of human HO-1-N-1 cell growth in a cell viability assay.

HOS = assay type: functional, cell-based, Homo sapiens; conditions: Homo sapiens, HOS
Description: SANGER: Inhibition of human HOS cell growth in a cell viability assay.

HT-1376 = assay type: functional, cell-based, Homo sapiens; conditions: Homo sapiens, HT-1376
Description: SANGER: Inhibition of human HT-1376 cell growth in a cell viability assay.

IGROV-1 = assay type: functional, cell-based, Homo sapiens; conditions: Homo sapiens, IGROV-1
Description: SANGER: Inhibition of human IGROV-1 cell growth in a cell viability assay.

J-RT3-T3-5 = assay type: functional, cell-based; conditions: Homo sapiens
Description: SANGER: Inhibition of human J-RT3-T3-5 cell growth in a cell viability assay.

K562 = assay type: functional, cell-based; conditions: Homo sapiens
Description: SANGER: Inhibition of human K-562 cell growth in a cell viability assay.

KNS-42 = assay type: functional, cell-based, Homo sapiens; conditions: Homo sapiens, KNS-42
Description: SANGER: Inhibition of human KNS-42 cell growth in a cell viability assay.

KP-4 = assay type: functional, cell-based, Homo sapiens; conditions: Homo sapiens, KP-4; read-out: IC50
Description: SANGER: Inhibition of human KP-4 cell growth in a cell viability assay.

KYSE-70 cell line = assay type: functional, cell-based, Homo sapiens; conditions: Homo sapiens, KYSE-70
Description: SANGER: Inhibition of human KYSE-70 cell growth in a cell viability assay.

L-363 = assay type: functional, cell-based; conditions: Homo sapiens
Description: SANGER: Inhibition of human L-363 cell growth in a cell viability assay.

LXF-289 cell line = assay type: functional, cell-based, Homo sapiens; conditions: Homo sapiens, LXF-289
Description: SANGER: Inhibition of human LXF-289 cell growth in a cell viability assay.

MDA-MB-415 = assay type: functional, cell-based; conditions: Homo sapiens
MMAC-SF = assay type: functional, cell-based, Homo sapiens; conditions: Homo sapiens, MMAC-SF
Description: SANGER: Inhibition of human MMAC-SF cell growth in a cell viability assay.

MV4-11 = assay type: functional, cell-based, MV-4-11; conditions: Homo sapiens
Description: SANGER: Inhibition of human MV-4-11 cell growth in a cell viability assay.

NB17 = assay type: functional, cell-based; conditions: Homo sapiens
Description: SANGER: Inhibition of human NB17 cell growth in a cell viability assay.

NCI-H2087 = assay type: functional, cell-based, Homo sapiens; conditions: Homo sapiens, NCI-H2087
Description: SANGER: Inhibition of human NCI-H2087 cell growth in a cell viability assay.

NCI-H2126 = assay type: functional, cell-based, Homo sapiens; conditions: Homo sapiens, NCI-H2126
Description: SANGER: Inhibition of human NCI-H2126 cell growth in a cell viability assay.

NCI-H2452 = assay type: functional, cell-based, Homo sapiens; conditions: Homo sapiens, NCI-H2452
Description: SANGER: Inhibition of human NCI-H2452 cell growth in a cell viability assay.

NCI-H650 = assay type: functional, cell-based, Homo sapiens; conditions: Homo sapiens, NCI-H650
Description: SANGER: Inhibition of human NCI-H650 cell growth in a cell viability assay.

SNU1 = assay type: functional, cell-based; conditions: Homo sapiens
Description: SANGER: Inhibition of human NCI-SNU-1 cell growth in a cell viability assay.

OCI-AML2 = assay type: functional, cell-based; conditions: Homo sapiens
Description: SANGER: Inhibition of human OCI-AML2 cell growth in a cell viability assay.

OCUB-M = assay type: functional, cell-based, Homo sapiens; conditions: Homo sapiens, OCUB-M
Description: SANGER: Inhibition of human OCUB-M cell growth in a cell viability assay.

RCM-1 = assay type: functional, cell-based, Homo sapiens; conditions: Homo sapiens, RCM-1
Description: SANGER: Inhibition of human RCM-1 cell growth in a cell viability assay.

RPMI-2650 = assay type: functional, cell-based, Homo sapiens; conditions: Homo sapiens, RPMI-2650
Description: SANGER: Inhibition of human RPMI-2650 cell growth in a cell viability assay.

Ramos-2G6-4C10 = assay type: functional, cell-based; conditions: Homo sapiens
Description: SANGER: Inhibition of human Ramos-2G6-4C10 cell growth in a cell viability assay.

S-117 = assay type: functional, cell-based, Homo sapiens; conditions: Homo sapiens, S-117
Description: SANGER: Inhibition of human S-117 cell growth in a cell viability assay.

SK-MEL-24 = assay type: functional, cell-based; conditions: Homo sapiens
Description: SANGER: Inhibition of human SK-MEL-24 cell growth in a cell viability assay.

SK-N-AS = assay type: functional, cell-based, Homo sapiens; conditions: Homo sapiens, SK-N-AS
Description: SANGER: Inhibition of human SK-N-AS cell growth in a cell viability assay.

SK-N-DZ = assay type: functional, cell-based, Homo sapiens; conditions: Homo sapiens, SK-N-DZ
Description: SANGER: Inhibition of human SK-N-DZ cell growth in a cell viability assay.

SW1463 = assay type: functional, cell-based, Homo sapiens; conditions: Homo sapiens, SW1463
Description: SANGER: Inhibition of human SW1463 cell growth in a cell viability assay.

SW872 = assay type: functional, cell-based, Homo sapiens; conditions: Homo sapiens, SW872
Description: SANGER: Inhibition of human SW872 cell growth in a cell viability assay.

CWR22R = assay type: functional, cell-based, Homo sapiens; conditions: Homo sapiens, 22Rv1
Description: SANGER: Inhibition of human 22RV1 cell growth in a cell viability assay.

A2780 = assay type: functional, cell-based, Homo sapiens; conditions: Homo sapiens, A2780
Description: SANGER: Inhibition of human A2780 cell growth in a cell viability assay.

A3-KAW = assay type: functional, cell-based; conditions: Homo sapiens
Description: SANGER: Inhibition of human A3-KAW cell growth in a cell viability assay.

AU565 = assay type: functional, cell-based, Homo sapiens; conditions: Homo sapiens, AU565
Description: SANGER: Inhibition of human AU565 cell growth in a cell viability assay.

BB30-HNC = assay type: functional, cell-based, Homo sapiens; conditions: Homo sapiens, BB30-HNC
Description: SANGER: Inhibition of human BB30-HNC cell growth in a cell viability assay.

BXPC-3 = assay type: functional, cell-based, Homo sapiens; conditions: Homo sapiens, BXPC-3
Description: SANGER: Inhibition of human BxPC-3 cell growth in a cell viability assay.

C-33-A = assay type: functional, cell-based, Homo sapiens; conditions: Homo sapiens, C-33-A
Description: SANGER: Inhibition of human C-33-A cell growth in a cell viability assay.

C3A = assay type: functional, cell-based, Homo sapiens; conditions: Homo sapiens, C3A
Description: SANGER: Inhibition of human C3A cell growth in a cell viability assay.

CAL-51 = assay type: functional, cell-based, Homo sapiens; conditions: Homo sapiens, CAL-51
Description: SANGER: Inhibition of human CAL-51 cell growth in a cell viability assay.

TGBC24TKB = assay type: functional, cell-based, Homo sapiens; conditions: Homo sapiens, TGBC24TKB
Description: SANGER: Inhibition of human TGBC24TKB cell growth in a cell viability assay.

UMC-11 = assay type: functional, cell-based, Homo sapiens; conditions: Homo sapiens, UMC-11
Description: SANGER: Inhibition of human UMC-11 cell growth in a cell viability assay.

COLO-684 = assay type: functional, cell-based; conditions: Homo sapiens
Description: SANGER: Inhibition of human COLO-684 cell growth in a cell viability assay.

## CCOc1nc(NC(=O)Cc2cc(OC)ccc2OC)cc(N)c1C#N
CP50-MEL-B
  IC50: > 10 µM
D-502MG
  IC50: > 10 µM
DJM-1
  IC50: > 10 µM
DSH1
  IC50: > 10 µM
EM-2
  IC50: > 10 µM
GAMG
  IC50: > 10 µM
HCC1395
  IC50: > 10 µM
HEC-1
  IC50: > 10 µM
HO-1-N-1
  IC50: > 10 µM
HOS
  IC50: > 10 µM
HT-1376
  IC50: > 10 µM
IGROV-1
  IC50: > 10 µM
J-RT3-T3-5
  IC50: > 10 µM
K562
  IC50: > 10 µM
KNS-42
  IC50: > 10 µM
KP-4
  IC50: > 10 µM
KYSE-70 cell line
  IC50: > 10 µM
L-363
  IC50: > 10 µM
LXF-289 cell line
  IC50: > 10 µM
MDA-MB-415
  IC50: > 10 µM
MMAC-SF
  IC50: > 10 µM
MV4-11
  IC50: > 10 µM
NB17
  IC50: > 10 µM
NCI-H2087
  IC50: > 10 µM
NCI-H2126
  IC50: > 10 µM
NCI-H2452
  IC50: > 10 µM
NCI-H650
  IC50: > 10 µM
SNU1
  IC50: > 10 µM
OCI-AML2
  IC50: > 10 µM
OCUB-M
  IC50: > 10 µM
RCM-1
  IC50: > 10 µM
RPMI-2650
  IC50: > 10 µM
Ramos-2G6-4C10
  IC50: > 10 µM
S-117
  IC50: > 10 µM
SK-MEL-24
  IC50: > 10 µM
SK-N-AS
  IC50: > 10 µM
SK-N-DZ
  IC50: > 10 µM
SW1463
  IC50: > 10 µM
SW872
  IC50: > 10 µM
CWR22R
  IC50: > 10 µM
A2780
  IC50: > 10 µM
A3-KAW
  IC50: > 10 µM
AU565
  IC50: > 10 µM
BB30-HNC
  IC50: > 10 µM
BXPC-3
  IC50: > 10 µM
C-33-A
  IC50: > 10 µM
C3A
  IC50: > 10 µM
CAL-51
  IC50: > 10 µM
TGBC24TKB
  IC50: > 10 µM
UMC-11
  IC50: > 10 µM
COLO-684
  IC50: > 10 µM

## O=C1N=C(NCc2cccs2)S/C1=C\c1ccc2ncccc2c1
CP50-MEL-B
  IC50: > 5 µM
D-502MG
  IC50: > 5 µM
DJM-1
  IC50: > 5 µM
DSH1
  IC50: > 5 µM
EM-2
  IC50: > 5 µM
GAMG
  IC50: > 5 µM
HCC1395
  IC50: > 5 µM
HEC-1
  IC50: > 5 µM
HO-1-N-1
  IC50: > 5 µM
HOS
  IC50: > 5 µM
HT-1376
  IC50: > 5 µM
IGROV-1
  IC50: > 5 µM
J-RT3-T3-5
  IC50: > 5 µM
K562
  IC50: > 5 µM
KNS-42
  IC50: > 5 µM
KP-4
  IC50: > 5 µM
KYSE-70 cell line
  IC50: > 5 µM
L-363
  IC50: > 5 µM
LXF-289 cell line
  IC50: 4.22 µM
MDA-MB-415
  IC50: > 5 µM
MMAC-SF
  IC50: > 5 µM
MV4-11
  IC50: > 5 µM
NB17
  IC50: > 5 µM
NCI-H2087
  IC50: > 5 µM
NCI-H2126
  IC50: > 5 µM
NCI-H2452
  IC50: > 5 µM
NCI-H650
  IC50: > 5 µM
SNU1
  IC50: 0.731 µM
OCI-AML2
  IC50: > 5 µM
OCUB-M
  IC50: > 5 µM
RCM-1
  IC50: > 5 µM
RPMI-2650
  IC50: > 5 µM
Ramos-2G6-4C10
  IC50: > 5 µM
S-117
  IC50: > 5 µM
SK-MEL-24
  IC50: > 5 µM
SK-N-AS
  IC50: > 5 µM
SK-N-DZ
  IC50: 2.02 µM
SW1463
  IC50: > 5 µM
SW872
  IC50: > 5 µM
CWR22R
  IC50: > 5 µM
A2780
  IC50: > 5 µM
A3-KAW
  IC50: > 5 µM
AU565
  IC50: > 5 µM
BB30-HNC
  IC50: > 5 µM
BXPC-3
  IC50: > 5 µM
C-33-A
  IC50: > 5 µM
C3A
  IC50: > 5 µM
CAL-51
  IC50: > 5 µM
TGBC24TKB
  IC50: > 5 µM
UMC-11
  IC50: > 5 µM
COLO-684
  IC50: > 5 µM

## O=c1cc(-c2cccc3c2Sc2ccccc2S3)oc(N2CCOCC2)c1 [KU-55933]
CP50-MEL-B
  IC50: > 10 µM
D-502MG
  IC50: > 10 µM
DJM-1
  IC50: > 10 µM
DSH1
  IC50: > 10 µM
EM-2
  IC50: > 10 µM
GAMG
  IC50: > 10 µM
HCC1395
  IC50: > 10 µM
HEC-1
  IC50: > 10 µM
HO-1-N-1
  IC50: > 10 µM
HOS
  IC50: > 10 µM
HT-1376
  IC50: > 10 µM
IGROV-1
  IC50: > 10 µM
J-RT3-T3-5
  IC50: > 10 µM
K562
  IC50: > 10 µM
KNS-42
  IC50: > 10 µM
KP-4
  IC50: > 10 µM
KYSE-70 cell line
  IC50: > 10 µM
L-363
  IC50: > 10 µM
LXF-289 cell line
  IC50: > 10 µM
MDA-MB-415
  IC50: > 10 µM
MMAC-SF
  IC50: > 10 µM
MV4-11
  IC50: > 10 µM
NB17
  IC50: > 10 µM
NCI-H2087
  IC50: > 10 µM
NCI-H2126
  IC50: > 10 µM
NCI-H2452
  IC50: > 10 µM
NCI-H650
  IC50: > 10 µM
SNU1
  IC50: > 10 µM
OCI-AML2
  IC50: > 10 µM
OCUB-M
  IC50: > 10 µM
RCM-1
  IC50: > 10 µM
RPMI-2650
  IC50: > 10 µM
Ramos-2G6-4C10
  IC50: > 10 µM
S-117
  IC50: > 10 µM
SK-MEL-24
  IC50: > 10 µM
SK-N-AS
  IC50: > 10 µM
SK-N-DZ
  IC50: > 10 µM
SW1463
  IC50: > 10 µM
SW872
  IC50: > 10 µM
CWR22R
  IC50: > 10 µM
A2780
  IC50: > 10 µM
A3-KAW
  IC50: > 10 µM
AU565
  IC50: > 10 µM
BB30-HNC
  IC50: > 10 µM
BXPC-3
  IC50: > 10 µM
C-33-A
  IC50: > 10 µM
C3A
  IC50: > 10 µM
CAL-51
  IC50: > 10 µM
TGBC24TKB
  IC50: > 10 µM
UMC-11
  IC50: > 10 µM
COLO-684
  IC50: > 10 µM

## COc1ccc(C2=N[C@@H](c3ccc(Cl)cc3)[C@@H](c3ccc(Cl)cc3)N2C(=O)N2CCNC(=O)C2)c(OC(C)C)c1 [NUTLIN-3]
CP50-MEL-B
  IC50: 4.24 µM
D-502MG
  IC50: 2.97 µM
DJM-1
  IC50: > 8 µM
DSH1
  IC50: > 8 µM
EM-2
  IC50: > 8 µM
GAMG
  IC50: > 8 µM
HCC1395
  IC50: > 8 µM
HEC-1
  IC50: > 8 µM
HO-1-N-1
  IC50: > 8 µM
HOS
  IC50: > 8 µM
HT-1376
  IC50: > 8 µM
IGROV-1
  IC50: > 8 µM
J-RT3-T3-5
  IC50: > 8 µM
K562
  IC50: > 8 µM
KNS-42
  IC50: > 8 µM
KP-4
  IC50: > 8 µM
KYSE-70 cell line
  IC50: > 8 µM
L-363
  IC50: > 8 µM
LXF-289 cell line
  IC50: > 8 µM
MDA-MB-415
  IC50: > 8 µM
MMAC-SF
  IC50: > 8 µM
MV4-11
  IC50: 0.612 µM
NB17
  IC50: 4.32 µM
NCI-H2087
  IC50: > 8 µM
NCI-H2126
  IC50: > 8 µM
NCI-H2452
  IC50: > 8 µM
NCI-H650
  IC50: > 8 µM
SNU1
  IC50: 3.28 µM
OCI-AML2
  IC50: > 8 µM
OCUB-M
  IC50: > 8 µM
RCM-1
  IC50: > 8 µM
RPMI-2650
  IC50: 7.94 µM
Ramos-2G6-4C10
  IC50: > 8 µM
S-117
  IC50: > 8 µM
SK-MEL-24
  IC50: > 8 µM
SK-N-AS
  IC50: > 8 µM
SK-N-DZ
  IC50: > 8 µM
SW1463
  IC50: > 8 µM
SW872
  IC50: > 8 µM
CWR22R
  IC50: > 8 µM
A2780
  IC50: > 8 µM
A3-KAW
  IC50: 2.62 µM
AU565
  IC50: > 8 µM
BB30-HNC
  IC50: > 8 µM
BXPC-3
  IC50: > 8 µM
C-33-A
  IC50: > 8 µM
C3A
  IC50: > 8 µM
CAL-51
  IC50: > 8 µM
TGBC24TKB
  IC50: > 8 µM
UMC-11
  IC50: > 8 µM
COLO-684
  IC50: > 8 µM
